Measured values taken from US12612413B2, “Heteroaryl compounds as inhibitors of programmed necrosis pathway, composition and method using the same” (ACCRO BIOSCIENCE INC., priority 2020, dated 2026).

Columns and labels:
Format in all cases: cell-based
[1] = test system: L929 cells; test: L929 cell viability (necroptosis) assay; conditions: Mus musculus, TNF-α (40 ng/mL), z-VAD (20 μM), 16 h
Experimental: (§1) L929 cells were added to 96-well plate. The compounds at different concentrations (0.3, 1.0, 3.0, 10.0, 20.0 μM) were then preprocessed for two hours. TNF-α (40 ng/mL), and z-VAD (20 μM) were added, and the mixture was incubated for 16 h. Quantitative analysis of cell survival was conducted. DMSO pretreatment was used as a negative control. Concentration for 50% of maximal effect was calculated according to the curve of the survival rate measured at different concentrations. FIG. 3 depicts the EC50 curves of compound A3.

[2] = test system: HT-29 cells; test: HT-29 cell viability (necroptosis) assay; conditions: Homo sapiens, TNF-α (40 ng/mL), Smac mimetic (100 nM), z-VAD (20 μM), 40 h, from survival rate curve
Experimental: Human colon cancer HT-29 cells were used in a necroptosis assay. For this assay, HT-29 cells were added to 96-well plates. The compounds at different concentrations (0.3, 1.0, 3.0, 10.0, 20.0 μM) were then preprocessed for two hours. TNF-α (40 ng/mL), Smac mimetic (100 nM) and z-VAD (20 μM) were added, and the mixture was incubated for 40 h. Quantitative analysis of cell viability was conducted. DMSO pretreatment group was used as a negative control. Concentration for 50% of maximal effect was calculated according to the curve of the survival rate measured at different concentrations. FIG. 1 depicts the EC50 curves of compound A16.

[3] = test system: MEF cells; test: MEF cell viability (necroptosis) assay; conditions: Mus musculus, TNF-α (40 ng/mL), Smac mimetic (100 nM), z-VAD (20 μM), 12 h
Experimental: as §1, with “MEF cells” for “L929 cells”, “ng/mL), Smac mimetic (100 nM)” for “ng/mL),”, “for 12” for “for 16”, “pretreatment group” for “pretreatment”, “FIG. 2” for “FIG. 3”, “compound A9.” for “compound A3.”

CC1=Cc2cc3nccc(Nc4ccc5scnc5c4)c3cc2S1(=O)=O [Compound A3]
EC50 [1]: 1940 nM
EC50 [2]: 620 nM

CC1=C(OCC2CC2)c2cc3nccc(Nc4ccc5scnc5c4)c3cc2S1(=O)=O [Compound A21]
EC50 [1]: 8730 nM
EC50 [2]: 310 nM
EC50 [3]: 440 nM

O=S1(=O)CCc2cc3nccc(Nc4ccc5scnc5c4)c3cc21 [Compound B1, 8-(benzo[d]thiazol-5-ylamino)-2,3-dihydrothieno[2,3-g]quinoline 1,1-dioxide]
EC50 [1]: 64000 nM
EC50 [2]: 1740 nM

CCOC1=CS(=O)(=O)c2cc3c(Nc4ccc5scnc5c4)ccnc3cc21 [Compound A13]
EC50 [1]: 780 nM
EC50 [2]: 430 nM
EC50 [3]: 200 nM

CCOC1=C(C)S(=O)(=O)c2cc3c(Nc4ccc5scnc5c4)ccnc3cc21 [Compound A20]
EC50 [1]: 420 nM
EC50 [2]: 280 nM
EC50 [3]: 310 nM

O=S1(=O)CC2(OCCO2)c2cc3nccc(Nc4ccc5scnc5c4)c3cc21 [Compound B2, 8-(benzo[d]thiazol-5-ylamino)-2H-spiro[thieno[2,3-g]quinoline-3,2′-[1,3]dioxolane]1,1-dioxide]
EC50 [1]: 430 nM
EC50 [2]: 300 nM
EC50 [3]: 435 nM

O=S1(=O)C=C(C2CC2)c2cc3nccc(Nc4ccc5scnc5c4)c3cc21 [Compound A9]
EC50 [1]: 210 nM
EC50 [2]: 85 nM
EC50 [3]: 240 nM
